Measured values as given in ChEMBL document CHEMBL5096169, “Recent progress in agents targeting polo-like kinases: Promising therapeutic strategies” (Eur J Med Chem, 2021).
Values joined by “and” are separate entries in the source; they are usually repeats but may differ in a detail not shown here. Equal values may be shown once. Each block holds one compound with its values, some of them ahead of it.

What was measured:
[1] = tested on: MOLM-13; experiment: Antiproliferative activity against human MOLM-13 cells assessed as inhibition of cell proliferation incubated for 24 hrs by CCK-8 assay; format: functional, cell-based; conditions: MOLM-13, 24 h
[2] = tested on: KG-1; experiment: Antiproliferative activity against human KG-1 cells assessed as inhibition of cell proliferation incubated for 24 hrs by CCK-8 assay; format: functional, cell-based; conditions: KG-1, 24 h
[3] = target: T1, Serine/threonine-protein kinase PLK1 (Homo sapiens, UniProt P53350); experiment: Inhibition of human PLK1-PBD (326 to 603 residues) expressed in Escherichia coli BL21(DE3) rosetta cells using 5-carboxyfluorescein-GPMQSpTPLNG-OH as substrate preincubated for 1 hr followed by substrate addition and measured after 1 to 2 hr by fluorescence polarization assay
T1 sequence (P53350 whole entry, the tested form may be a part): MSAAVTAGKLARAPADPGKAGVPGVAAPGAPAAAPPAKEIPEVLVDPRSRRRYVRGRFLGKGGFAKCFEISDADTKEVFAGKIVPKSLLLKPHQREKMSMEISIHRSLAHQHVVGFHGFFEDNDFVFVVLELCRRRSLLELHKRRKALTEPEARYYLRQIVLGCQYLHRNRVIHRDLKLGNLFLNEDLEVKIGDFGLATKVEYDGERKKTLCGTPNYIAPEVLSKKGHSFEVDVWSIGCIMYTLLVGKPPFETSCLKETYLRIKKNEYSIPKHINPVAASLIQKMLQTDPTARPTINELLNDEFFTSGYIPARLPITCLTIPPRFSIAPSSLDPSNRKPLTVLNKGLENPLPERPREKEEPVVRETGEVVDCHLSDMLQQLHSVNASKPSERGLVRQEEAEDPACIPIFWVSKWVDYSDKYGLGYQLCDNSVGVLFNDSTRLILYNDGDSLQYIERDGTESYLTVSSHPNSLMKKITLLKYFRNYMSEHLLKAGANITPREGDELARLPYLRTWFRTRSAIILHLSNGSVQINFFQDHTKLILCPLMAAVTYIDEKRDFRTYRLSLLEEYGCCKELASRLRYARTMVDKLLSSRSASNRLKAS

[4] = target: T1, Serine/threonine-protein kinase PLK1; experiment: Binding affinity to human PLK1-PBD (326 to 603 residues) expressed in Escherichia coli BL21(DE3) rosetta cells by microscale thermophoresis analysis
[5] = target: T1, Serine/threonine-protein kinase PLK1; experiment: Inhibition of PLK1 (unknown origin)
[6] = tested on: CCRF-CEM; experiment: Cytotoxicity against human CCRF-CEM cells assessed as reduction in cell viability incubated for 72 hrs by resazurin microplate assay; format: functional, cell-based
[7] = target: Serine/threonine-protein kinase PLK3 (Homo sapiens, UniProt Q9H4B4); experiment: Inhibition of recombinant N-terminal MBP-tagged human PLK3-PBD expressed in Escherichia coli BL21(DE3) rosetta cells using 5-carboxyfluorescein-GPLATSpTPKNG-NH2 as substrate preincubated for 1 hr followed by substrate addition and measured after 1 hr by fluorescence polarization assay
Chain of Serine/threonine-protein kinase PLK3 (Q9H4B4 whole entry): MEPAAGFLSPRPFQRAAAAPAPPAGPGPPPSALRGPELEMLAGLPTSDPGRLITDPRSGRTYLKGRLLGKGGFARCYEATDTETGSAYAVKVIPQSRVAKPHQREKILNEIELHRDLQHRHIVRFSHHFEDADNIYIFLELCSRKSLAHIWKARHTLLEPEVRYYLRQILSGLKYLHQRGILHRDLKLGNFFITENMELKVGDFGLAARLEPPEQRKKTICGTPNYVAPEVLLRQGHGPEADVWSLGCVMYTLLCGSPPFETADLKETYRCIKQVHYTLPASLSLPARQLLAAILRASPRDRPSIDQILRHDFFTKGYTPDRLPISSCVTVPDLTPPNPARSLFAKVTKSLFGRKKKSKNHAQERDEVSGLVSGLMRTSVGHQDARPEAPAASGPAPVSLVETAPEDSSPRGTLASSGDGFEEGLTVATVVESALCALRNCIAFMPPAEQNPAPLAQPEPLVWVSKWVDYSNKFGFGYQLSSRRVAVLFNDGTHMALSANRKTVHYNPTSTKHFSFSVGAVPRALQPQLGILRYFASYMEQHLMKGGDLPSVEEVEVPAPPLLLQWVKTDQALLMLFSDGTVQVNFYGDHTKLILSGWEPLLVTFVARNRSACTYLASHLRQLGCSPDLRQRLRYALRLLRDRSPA

[8] = target: T1, Serine/threonine-protein kinase PLK1; experiment: Inhibition of human PLK1-PBD expressed in Escherichia coli BL21(DE3) rosetta cells using 5-carboxyfluorescein-GPMQSpTPLNG-OH as substrate preincubated for 1 hr followed by substrate addition and measured after 1 hr by fluorescence polarization assay
[9] = target: Serine/threonine-protein kinase PLK2 (Homo sapiens, UniProt Q9NYY3); experiment: Inhibition of recombinant C-terminal 6His-tagged human PLK2-PBD expressed in Escherichia coli BL21(DE3) rosetta cells using 5-carboxyfluorescein-GPMQTSpTPKNG-OH as substrate preincubated for 1 hr followed by substrate addition and measured after 1 hr by fluorescence polarization assay
Chain of Serine/threonine-protein kinase PLK2 (Q9NYY3 whole entry): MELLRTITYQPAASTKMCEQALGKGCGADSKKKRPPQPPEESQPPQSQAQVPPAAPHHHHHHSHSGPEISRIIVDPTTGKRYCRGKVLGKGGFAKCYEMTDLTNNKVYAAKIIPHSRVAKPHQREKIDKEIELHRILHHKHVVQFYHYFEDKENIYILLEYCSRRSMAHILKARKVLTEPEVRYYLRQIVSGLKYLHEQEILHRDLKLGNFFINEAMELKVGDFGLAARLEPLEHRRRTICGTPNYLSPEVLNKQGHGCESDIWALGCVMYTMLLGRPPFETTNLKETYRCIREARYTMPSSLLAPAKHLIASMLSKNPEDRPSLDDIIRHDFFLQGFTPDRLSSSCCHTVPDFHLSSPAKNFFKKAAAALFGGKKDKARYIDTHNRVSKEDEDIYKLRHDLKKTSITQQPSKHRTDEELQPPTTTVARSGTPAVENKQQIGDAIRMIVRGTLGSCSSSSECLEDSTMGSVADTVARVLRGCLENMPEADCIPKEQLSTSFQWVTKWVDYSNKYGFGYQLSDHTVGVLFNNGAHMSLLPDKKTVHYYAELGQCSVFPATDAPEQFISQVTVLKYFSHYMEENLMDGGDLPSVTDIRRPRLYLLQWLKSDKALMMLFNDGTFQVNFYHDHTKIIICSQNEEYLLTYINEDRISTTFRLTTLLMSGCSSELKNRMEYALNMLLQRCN

[10] = tested on: ADR5000 cell line; experiment: Cytotoxicity against human CEM/ADR5000 cells assessed as reduction in cell viability incubated for 72 hrs by resazurin microplate assay; format: functional, cell-based; conditions: ADR5000, 72 h
[11] = target: T1, Serine/threonine-protein kinase PLK1; experiment: Inhibition of PLK1-PBD (unknown origin) using FITC-GPMQSpTPLNG-OH as substrate measured after 30 mins by Fluorescence polarization assay

Compound: CC[C@@H]1C(=O)N(C)c2cnc(Nc3ccc(C(=O)NCCOCCOCCOCCNc4cccc5c4C(=O)N(C4CCC(=O)NC4=O)C5=O)cc3OC)nc2N1C1CCCC1 (stereo partly specified)
IC50 [1]: 0.00621 µM
IC50 [2]: 0.00694 µM

Compound: CCOC(=O)c1oc2ccccc2c1CBr
IC50 [3]: 16.4 µM
Kd [4]: 12.8 µM

Compound: COc1cc2ncn(-c3cc(-c4cccc(C(F)(F)F)c4)c(C(N)=O)s3)c2cc1OC
IC50 [5]: 0.0022 µM

The next lines start with results.

IC50 [7]: > 100 µM
IC50 [8]: 17.9 µM and 95.5 µM
IC50 [9]: 95.5 µM
Compound: C[C@@]12CN(Cc3cccc(C#N)c3)C[C@@](C)(C1)c1c(-c3ccc4ccccc4c3)ccc(=O)n1C2
IC50 [6]: 11.4 µM
IC50 [10]: 13.5 µM

IC50 [11]: 0.267 µM
Compound: CC(CC(=O)N[C@H](C(=O)N[C@@H](CO)C(=O)N[C@H](C(N)=O)[C@@H](C)OP(=O)(O)O)c1cncs1)NC(=O)c1ccc(CO)cc1 (single isomer, unassigned)
